The text below walks through data of patent US20210255193A1, “LYSINE REACTIVE PROBES AND USES THEREOF” (The Scripps Research Institute, priority 2017, published 2021).

Entries after “also recorded” stand apart in the source; their conditions may differ.

Experiment [1] deals with T1, PNPO (Homo sapiens, UniProt Q9NVS9).
T1 construct: Flag; expressed in transfected cells; host or cells: HEK 293T, transient transfection, soluble lysate
T1 sequence (Q9NVS9 1-261): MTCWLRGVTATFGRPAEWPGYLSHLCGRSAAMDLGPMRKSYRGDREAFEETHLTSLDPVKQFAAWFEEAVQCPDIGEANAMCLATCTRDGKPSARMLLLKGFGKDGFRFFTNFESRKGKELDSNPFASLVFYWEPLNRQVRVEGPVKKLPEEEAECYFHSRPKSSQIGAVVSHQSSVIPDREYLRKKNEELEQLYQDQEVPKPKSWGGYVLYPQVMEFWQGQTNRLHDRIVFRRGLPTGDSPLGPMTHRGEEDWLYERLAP
The experiment in a line: PNPO functional assay. The format is biochemical. The conditions noted are these: substrate assay, WT; read-out: IC50, blockade of PNPO catalytic activity. The procedure:
(§1) PNPO functional assay. 80 μl of soluble proteome (total protein concentration: 1 mg ml^−1) from HEK 293T cells expressing PNPO (WT or K100R mutant) or mock transfected cells (empty vector; negative control) were added into a clear bottom 384 well plate. For compound treatments, 1 μl of the inhibitor (80× solution in DMSO) or 1 μl of DMSO (positive control) were added and the reactions were incubated for 1 h at room temperature. 10 μl of 0.1 M Tris in PBS were added and the reaction was started by addition of 10 μl 5 mM pyridoxine phosphate (PNP) in water (PNP was prepared as described in Argoudelis, C. J., “Preparation of crystalline pyridoxine 5′-phosphate and some of its properties,” J. Agr. Food Chem. 34, 995-998 (1986)). The absorbance of the Schiff Base between pyridoxal phosphate and Tris was measured at 388 nm every minute for 30 min.
(§2) Calculation of relative activity or percent inhibition. For PNPO, PFKP, NUDT2 and G6PD, the slope of the linear regression of the linear portion of the absorbance or fluorescence over time was used as measure their activity. Apparent activity was calculated relative to the WT. Percent inhibition was calculated relative to the positive and negative control and used to calculate IC50 values by nonlinear regression analysis from a dose-response curve generated using GraphPad Prism 7.

Experiment [2] addresses T2, PNPO (Homo sapiens, UniProt Q9NVS9, K100R).
T2 construct: Flag; expressed in transfected cells; host or cells: HEK 293T, transient transfection, soluble lysate
The experiment in a line: PNPO functional assay. The format is biochemical. The conditions noted are these: K100R mutant. The procedure:
as §1, §2

Experiment [3] addresses T1, PNPO. The experiment is described as follows: competitive gel-based ABPP, apparent IC50. The conditions noted are these: read-out: apparent IC50, blockade of probe labeling of K100 in PNPO. In kind it is binding. The procedure: (§3) Recombinant expression of proteins by transient transfection. HEK 293T cells were grown to 50% confluency in 10 ml DMEM supplemented with 10% fetal bovine serum (FBS), penicillin, streptomycin and glutamine in 10 cm tissue culture dishes. 3 μg of DNA was diluted in 500 μL DMEM and 30 μL of PEI (MW 40,000, 1 mg ml^−1, Polysciences) were added. The mixture was incubated at room temperature for 30 min and added dropwise to the cells. Cells were grown for 48 h at 37° C. with 5% CO2. Cells were washed with cold PBS, scraped with cold PBS and cell pellets were isolated by centrifugation (1,400 g, 3 min, 4° C.), and stored at −80° C. until use. Cell pellets were resuspended in PBS, lysed by sonication and fractionated (100,000 g, 45 min) to yield soluble and membrane fractions. The soluble fraction was adjusted to a final protein concentration of 1 mg ml^−1 for gel-based ABPP experiments.
(§4) Competitive gel-based ABPP and apparent IC50 values. 50 μl of soluble proteome (1 mg ml^−1) expressing the indicated protein were treated with fragment electrophiles (1 μl of 50× stock solution in DMSO) at ambient temperature for 1 h. The indicated probe (fluorophore or alkyne-containing, 1 μl of a 500 μM solution, final concentration=10 μM) was then added and allowed to react for an additional 1 h. CuAAC and in-gel fluorescence analysis were performed as described above. For quantification of inhibition and apparent IC50 determination, the percentage of labeling was determined by quantifying the integrated optical intensity of the bands using ImageLab 5.2.1 software (BioRad). Nonlinear regression analysis was used to determine the IC50 values from a dose-response curve generated using GraphPad Prism 7.

Another experiment deals with T3, PFKP (Homo sapiens, UniProt Q01813).
T3 construct: Flag; expressed in transfected cells; host or cells: HEK 293T, transient transfection, soluble lysate; cDNA clone 5180268 (Dharmacon)
T3 sequence (Q01813 1-784): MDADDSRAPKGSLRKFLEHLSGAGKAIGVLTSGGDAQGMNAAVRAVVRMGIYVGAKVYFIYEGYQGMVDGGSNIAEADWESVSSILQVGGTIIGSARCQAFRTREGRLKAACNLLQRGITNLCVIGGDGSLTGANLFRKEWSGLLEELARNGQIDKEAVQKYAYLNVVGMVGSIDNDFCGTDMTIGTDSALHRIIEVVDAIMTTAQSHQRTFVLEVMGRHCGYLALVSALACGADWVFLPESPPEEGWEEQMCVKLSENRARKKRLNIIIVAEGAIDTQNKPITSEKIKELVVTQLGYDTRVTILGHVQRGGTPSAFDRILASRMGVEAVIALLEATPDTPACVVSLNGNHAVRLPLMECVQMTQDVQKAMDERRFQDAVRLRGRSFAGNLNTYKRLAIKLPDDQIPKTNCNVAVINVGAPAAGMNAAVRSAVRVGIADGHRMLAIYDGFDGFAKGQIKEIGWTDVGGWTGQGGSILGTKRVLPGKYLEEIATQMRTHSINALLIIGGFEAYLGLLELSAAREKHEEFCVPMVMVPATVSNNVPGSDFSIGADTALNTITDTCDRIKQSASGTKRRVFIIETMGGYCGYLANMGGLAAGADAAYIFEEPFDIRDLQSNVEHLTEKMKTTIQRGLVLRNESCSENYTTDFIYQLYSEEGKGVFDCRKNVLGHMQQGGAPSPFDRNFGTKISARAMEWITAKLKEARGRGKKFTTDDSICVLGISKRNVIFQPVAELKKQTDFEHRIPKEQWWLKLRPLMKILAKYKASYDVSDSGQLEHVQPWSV
The experiment in a line: competitive gel-based ABPP, apparent IC50. The format is binding. Conditions: read-out: apparent IC50, blockade of probe labeling of recombinant PFKP. The procedure: as §3, §4

Experiment [4] addresses T4, Flag-tagged SIN3A (a.a. 1-400) (Homo sapiens, UniProt Q96ST3).
T4 construct: expressed in transfected cells; host or cells: HEK 293T, transient transfection, lysate
The experiment in a line: competitive gel-based ABPP, apparent IC50. In kind it is binding. The conditions noted are these: probe 17, HEK293T cell lysates. The procedure:
as §3, §4

Another experiment concerns the target T5, NUDT2 (Homo sapiens, UniProt P50583).
T5 construct: expressed in transfected cells; host or cells: HEK 293T, transient transfection, soluble lysate; synthesized gene (IDT)
The experiment is described as follows: competitive gel-based ABPP, apparent IC50. The format is binding. The procedure:
as §3, §4

T4 sequence (Q96ST3 1-400): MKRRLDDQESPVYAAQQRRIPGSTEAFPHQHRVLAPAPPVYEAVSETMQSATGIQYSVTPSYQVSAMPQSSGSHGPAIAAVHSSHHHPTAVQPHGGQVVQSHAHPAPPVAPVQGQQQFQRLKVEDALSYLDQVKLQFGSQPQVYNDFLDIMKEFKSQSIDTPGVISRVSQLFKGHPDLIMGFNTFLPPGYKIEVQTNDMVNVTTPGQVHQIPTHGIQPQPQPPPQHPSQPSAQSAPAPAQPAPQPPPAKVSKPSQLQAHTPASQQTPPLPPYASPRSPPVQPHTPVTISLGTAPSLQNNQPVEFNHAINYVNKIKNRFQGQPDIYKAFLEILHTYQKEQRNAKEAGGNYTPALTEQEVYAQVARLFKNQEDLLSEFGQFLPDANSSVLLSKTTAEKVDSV
T5 sequence (P50583 whole entry): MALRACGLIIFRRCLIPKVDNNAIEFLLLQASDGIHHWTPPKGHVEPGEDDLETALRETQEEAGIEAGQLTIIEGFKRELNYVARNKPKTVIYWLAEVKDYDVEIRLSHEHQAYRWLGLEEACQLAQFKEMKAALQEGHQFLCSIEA
T2 sequence (Q9NVS9 whole entry K100R): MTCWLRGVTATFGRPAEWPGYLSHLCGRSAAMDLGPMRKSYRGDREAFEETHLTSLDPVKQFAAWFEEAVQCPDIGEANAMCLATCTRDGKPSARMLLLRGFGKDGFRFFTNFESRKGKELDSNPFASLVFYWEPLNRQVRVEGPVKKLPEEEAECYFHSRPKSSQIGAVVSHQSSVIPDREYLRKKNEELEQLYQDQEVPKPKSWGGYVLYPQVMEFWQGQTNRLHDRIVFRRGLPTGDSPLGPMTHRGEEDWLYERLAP

Broadly, the IC50 is the point on the concentration scale where inhibition reaches its midpoint. On to `O=C(CCc1cn(-c2ccccc2)nc1-c1ccccc1)Oc1c(F)c(F)c(F)c(F)c1F` [fragment 19, Pentafluorophenyl 3-(1,3-diphenyl-1H-pyrazol-4-yl)propanoate], for which the IC50 was around 5 µM on PNPO [1] and 3 µM on PNPO [3]. The “inhibitory effect on K100R mutant of PNPO” value against PNPO [2] was “not observed”.

Consider `O=C(Oc1c(F)c(F)c(F)c(F)c1F)C(c1ccccc1)c1ccccc1` [fragment 20, Pentafluorophenyl 2,2-diphenylacetate], for which, on PFKP, the IC50 was 2 µM.

Consider `O=C(Oc1c(F)c(F)c(F)c(F)c1F)c1cc(C(F)(F)F)cc(C(F)(F)F)c1` [fragment 21, Pentafluorophenyl 3,5-bis(trifluoromethyl)benzoate], for which the “blockade of probe labeling of K155” value in experiment [4] is “site-specific and complete blockade of probe labeling of K155; also recorded: blocks probe 17 labeling of SIN3A at K155 in a concentration-dependent manner”. Besides, the IC50 in experiment [4] (read-out: apparent IC50, blockade of probe labeling of K155) was 5 µM.

Regarding `COC(=O)NC(=NC(=O)OCC1c2ccccc2-c2ccccc21)n1cccn1` [fragment 49, N-Methoxycarbonyl-N′-9-fluorenylmethoxycarbonyl-pyrazole-1-carboxamidine], the “blockade of probe 1-labeling of K89 in NUDT2” value on NUDT2 (FIG. 11G) was “quantitatively blocked”. Also, the IC50 on NUDT2 (gel-based ABPP, read-out: apparent IC50, blockade of probe labeling of NUDT2) amounted to 2 µM.
